PubChem BioAssay AID2060909 (Molecular Pharmacology Branch, DTP, NCI, 2025)
pIC50: −log10 of the molar value. “And” between values parts separate entries of the source, which are not always exact repeats. Equal entries are not always repeated.

Tested on: 362531-283-R-J2-PDC complex spheroid viability
Assay: Anticancer human tumor 362531-283-R-J2-PDC patient-derived colon adenocarcinoma cell line growth inhibition [RAS]
Conditions: for viability, T/C: stronger effect = lower value
Excerpt: RAS pathway inhibitors in Combinations in Complex Spheroids
A high-throughput screen of multi-cell type tumor spheroids was designed to identify active combinations of RAS pathway inhibitors and targeted small molecules. Complex spheroids include a stromal component modeled by human endothelial cells (HUVEC) and fibroblasts modeled by human mesenchymal stem cells (MSCs). The concentration ranges selected for each drug and investigational agent were based upon clinically achievable concentrations if the clinical Cmax of the agent was known.
Compounds. The drugs and investigational agents: abemaciclib (NSC768073), cobimetinib (NSC768068), divarasib (GDC6063, NSC841802), docetaxel (NSC628503), GDC-1971 (RLY-1971, NSC841576), gemcitabine (NSC613327), inavolisib (NSC800729), ipatasertib (NSC767898), KB-0742 (NSC834161), MRTX-1133 (NSC836407), osimertinib (NSC779217), RMC-4630 (NSC839698), RMC-6236 (NSC851965), RMC-6291 (NSC852671), Ro-3306 (NSC812927), sapanisertib (NSC764658), SN-38 (NSC673596), staurosporine (NSC755774), SY5609 (NSC837396), and tovorafenib (DAY101, NSC766906), were obtained from the National Cancer Institute (NCI) Developmental Therapeutics Program Chemical Repository. The FDA-approved anticancer drug set is available from the NCI Developmental Therapeutics Program. […] The stock solutions were prepared in dimethyl sulfoxide (DMSO, Sigma-Aldrich, St. Louis, MO, cat. D2650) at 800-fold the tested concentration and stored at -70 degrees C prior to their use. All drugs and investigational agents were tested over a range starting from a high concentration at or near the clinical Cmax and decreasing in half-log increments. If the clinical Cmax for an agent had not been determined, the highest concentration tested was 10 microM.
Cell Culture. All cells were maintained in an incubator at 37 degrees C and 5% CO2 with 95% humidity. The PDC lines were cultured according to standard operating procedures established by the NCI PDMR. All PDCs were thawed and cultured in Matrigel-coated flasks prepared with a working solution of 1X Ham's F-12 nutrient mix, without supplementation (Invitrogen, Waltham, MA, cat. 11765054), 100 U/mL penicillin-streptomycin (Invitrogen, cat. 15140122), and 2.5% Matrigel (Corning Inc., Corning, NY, cat. 354248) for the first three passages. The 362531-283-R-J2-PDC and 782815-120-R-J1-PDC lines were cultured in 6C/Colon 1B media, which includes advanced DMEM/F-12 (Thermo Fisher Scientific, cat. 12634028), 10 mM HEPES (Thermo Fisher Scientific, cat. 15630080), 1X GlutaMAX supplement (Thermo Fisher Scientific, cat. 35050061), 0.1 mg/mL primocin (InvivoGen, San Diego, CA, cat. ant-pm-2), 10% defined fetal bovine serum, heat inactivated (HyClone Laboratories Inc., Logan, UT, cat. SH30070.03HI), 50% L-WRN conditioned media (ATCC, cat. CRL-3276), 1.25 mM N-Acetyl-L-cysteine (Sigma-Aldrich, cat. A9165), 10 mM nicotinamide (Sigma-Aldrich, cat. N0636), 1X B-27 supplement (Thermo Fisher Scientific, cat. 17504044), 1X N-2 supplement (Thermo Fisher Scientific, cat. 17502048), 50 ng/mL human EGF (Thermo Fisher Scientific, cat. PHG0311), and 10 microM Y-27632 dihydrochloride (Tocris Bioscience, cat. 1254). The K12877-001-R-J1-PDC line was cultured in 6I media, which includes all 6C/Colon 1B media plus 10 ng/mL human FGF-10 (PeproTech, cat. 100-26), 1 ng/mL human FGF-2 (PeproTech, cat. 100-18B), 1 µM prostaglandin E2 (Tocris Bioscience, cat. 2296), […] hydrocortisone (Sigma-Aldrich, cat. H4001), and […] bovine insulin (Sigma-Aldrich, cat. I6634). The K86415-001-R-J1-PDC line was cultured in 6D media, which includes all 6C/Colon 1B media components minus the L-WRN conditioned media. The 485176-168-R4-J1-PDC was cultured in PANC media, which includes all 6C/Colon 1B media plus 100 ng/mL human FGF-10 (PeproTech, cat. 100-26), 500 nM SB-431542 (Selleckchem, cat. S1067), and 10 nM gastrin (Tocris Bioscience, cat. 3006). […]

[1] = curve of first compound, second compound 0.0316 µM
[2] = curve of first compound, second compound 0.1 µM
[3] = curve of first compound, second compound 0.316 µM
[4] = curve of first compound, second compound 1 µM
[5] = curve of first compound, second compound 3.16 µM
[6] = curve of first compound, second compound 10 µM
[7] = second compound 0.0316 µM, first compound 0.0316 µM
[8] = second compound 0.0316 µM, first compound 0.1 µM
[9] = second compound 0.0316 µM, first compound 0.316 µM
[10] = second compound 0.0316 µM, first compound 1 µM
[11] = second compound 0.0316 µM, first compound 3.16 µM
[12] = second compound 0.0316 µM, first compound 10 µM
[13] = second compound 0.1 µM, first compound 0.0316 µM
[14] = second compound 0.1 µM, first compound 0.1 µM
[15] = second compound 0.1 µM, first compound 0.316 µM
[16] = second compound 0.1 µM, first compound 1 µM
[17] = second compound 0.1 µM, first compound 3.16 µM
[18] = second compound 0.1 µM, first compound 10 µM
[19] = second compound 0.316 µM, first compound 0.0316 µM
[20] = second compound 0.316 µM, first compound 0.1 µM
[21] = second compound 0.316 µM, first compound 0.316 µM
[22] = second compound 0.316 µM, first compound 1 µM
[23] = second compound 0.316 µM, first compound 3.16 µM
[24] = second compound 0.316 µM, first compound 10 µM
[25] = second compound 1 µM, first compound 0.0316 µM
[26] = second compound 1 µM, first compound 0.1 µM
[27] = second compound 1 µM, first compound 0.316 µM
[28] = second compound 1 µM, first compound 1 µM
[29] = second compound 1 µM, first compound 3.16 µM
[30] = second compound 1 µM, first compound 10 µM
[31] = second compound 3.16 µM, first compound 0.0316 µM
[32] = second compound 3.16 µM, first compound 0.1 µM
[33] = second compound 3.16 µM, first compound 0.316 µM
[34] = second compound 3.16 µM, first compound 1 µM
[35] = second compound 3.16 µM, first compound 3.16 µM
[36] = second compound 3.16 µM, first compound 10 µM
[37] = second compound 10 µM, first compound 0.0316 µM
[38] = second compound 10 µM, first compound 0.1 µM
[39] = second compound 10 µM, first compound 0.316 µM
[40] = second compound 10 µM, first compound 1 µM
[41] = second compound 10 µM, first compound 3.16 µM
[42] = second compound 10 µM, first compound 10 µM
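Further: spheroids exposed to the agents for 7 days before readout.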
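Wherever viability, T/C is given: luminescence viability as percent of DMSO vehicle control wells.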

Compound: CC1(O)CCCC1n1c(=O)c(C(F)F)cc2cnc(NC3CCN(S(C)(=O)=O)CC3)nc21 (stereo unspecified) + C#Cc1c(F)ccc2cc(O)cc(-c3ncc4c(N5CC6CCC(C5)N6)nc(OCC56CCCN5CC(F)C6)nc4c3F)c12
- pIC50 [1]: < 5.00
- pIC50 [2]: < 5.00
- pIC50 [3]: 5.51
- pIC50 [4]: 5.46
- pIC50 [5]: 5.89
- pIC50 [6]: > 7.50
- viability, T/C [7]: 92.6%
- viability, T/C [8]: 91.8%
- viability, T/C [9]: 71.8%
- viability, T/C [10]: 71%
- viability, T/C [11]: 62.3%
- viability, T/C [12]: 81%
- viability, T/C [13]: 95.4%
- viability, T/C [14]: 92.5%
- viability, T/C [15]: 80.9%
- viability, T/C [16]: 73.4%
- viability, T/C [17]: 68.7%
- viability, T/C [18]: 73.2%
- viability, T/C [19]: 82.7%
- viability, T/C [20]: 89.1%
- viability, T/C [21]: 74.6%
- viability, T/C [22]: 66.4%
- viability, T/C [23]: 49.8%
- viability, T/C [24]: 37%
- viability, T/C [25]: 82.8%
- viability, T/C [26]: 80.5%
- viability, T/C [27]: 67.7%
- viability, T/C [28]: 69.3%
- viability, T/C [29]: 53.9%
- viability, T/C [30]: 20.4%
- viability, T/C [31]: 59.2%
- viability, T/C [32]: 59.8%
- viability, T/C [33]: 61.4%
- viability, T/C [34]: 54.7%
- viability, T/C [35]: 32%
- viability, T/C [36]: 7.49%
- viability, T/C [37]: 45.1%
- viability, T/C [38]: 50.7%
- viability, T/C [39]: 29.9%
- viability, T/C [40]: 29.7%
- viability, T/C [41]: 24.7%
- viability, T/C [42]: 5.91%

Compound: NC1c2ccccc2OC12CCN(c1cnc3c(N4CCCc5ncccc54)n[nH]c3n1)CC2 (stereo unspecified)
- viability, T/C (compound 0.0316 µM): 95.1% [middle of 4 runs]
- viability, T/C (compound 0.1 µM): 90% [middle of 4 runs]
- viability, T/C (compound 0.316 µM): 85.3% [middle of 4 runs]
- viability, T/C (compound 1 µM): 76.1% [middle of 4 runs]
- viability, T/C (compound 3.16 µM): 68.5% [middle of 4 runs]
- viability, T/C (compound 10 µM): 49.4% [middle of 4 runs]
- pIC50 (curve of compound): < 5.00 and 5.22 and 5.08

Compound: NC1c2ccccc2OC12CCN(c1cnc3c(N4CCCc5ncccc54)n[nH]c3n1)CC2 (stereo unspecified) + C#Cc1c(F)ccc2cc(O)cc(-c3ncc4c(N5CC6CCC(C5)N6)nc(OCC56CCCN5CC(F)C6)nc4c3F)c12
- pIC50 [1]: 6.45
- pIC50 [2]: 6.76
- pIC50 [3]: 7.12
- pIC50 [4]: 7.45
- pIC50 [5]: > 7.50
- pIC50 [6]: > 7.50
- viability, T/C [7]: 98.7%
- viability, T/C [8]: 73.2%
- viability, T/C [9]: 60.9%
- viability, T/C [10]: 10.6%
- viability, T/C [11]: 5.23%
- viability, T/C [12]: 1.84%
- viability, T/C [13]: 79.7%
- viability, T/C [14]: 78.1%
- viability, T/C [15]: 20.7%
- viability, T/C [16]: 7.72%
- viability, T/C [17]: 6.1%
- viability, T/C [18]: 1.33%
- viability, T/C [19]: 84.2%
- viability, T/C [20]: 38.8%
- viability, T/C [21]: 9.03%
- viability, T/C [22]: 6.67%
- viability, T/C [23]: 5.3%
- viability, T/C [24]: 1.76%
- viability, T/C [25]: 54.7%
- viability, T/C [26]: 12.8%
- viability, T/C [27]: 10.8%
- viability, T/C [28]: 6.95%
- viability, T/C [29]: 5.9%
- viability, T/C [30]: 1.83%
- viability, T/C [31]: 25.5%
- viability, T/C [32]: 9.78%
- viability, T/C [33]: 9.64%
- viability, T/C [34]: 6.45%
- viability, T/C [35]: 5.47%
- viability, T/C [36]: 1.34%
- viability, T/C [37]: 11.1%
- viability, T/C [38]: 6.83%
- viability, T/C [39]: 5.98%
- viability, T/C [40]: 5.62%
- viability, T/C [41]: 2.9%
- viability, T/C [42]: 1.51%
